Measured values: US9145415B2, “Nitrogen-containing heterocyclic compound or salt thereof” (FUJIFILM Corporation, priority 2012, dated 2015)
pIC50: −log10 of the molar value. Like-named read-outs stand apart in the source and are kept apart here.

Assays:
[1] = biological target: T1, human FLT3 protein (FLT3 (WT)) (Homo sapiens, UniProt P36888); assay: FLT3 inhibition test (FLT3 enzyme inhibition, time-resolved fluorescence of substrate peptide phosphorylation); format: biochemical; conditions: read-out: FLT3 (WT) enzyme inhibition activity
T1 construct: human FLT3 protein (intracellular region, 564 to 993 aa); GST; purchased Carna Biosciences; host or cells: baculovirus expression system
T1 sequence (P36888 564-993): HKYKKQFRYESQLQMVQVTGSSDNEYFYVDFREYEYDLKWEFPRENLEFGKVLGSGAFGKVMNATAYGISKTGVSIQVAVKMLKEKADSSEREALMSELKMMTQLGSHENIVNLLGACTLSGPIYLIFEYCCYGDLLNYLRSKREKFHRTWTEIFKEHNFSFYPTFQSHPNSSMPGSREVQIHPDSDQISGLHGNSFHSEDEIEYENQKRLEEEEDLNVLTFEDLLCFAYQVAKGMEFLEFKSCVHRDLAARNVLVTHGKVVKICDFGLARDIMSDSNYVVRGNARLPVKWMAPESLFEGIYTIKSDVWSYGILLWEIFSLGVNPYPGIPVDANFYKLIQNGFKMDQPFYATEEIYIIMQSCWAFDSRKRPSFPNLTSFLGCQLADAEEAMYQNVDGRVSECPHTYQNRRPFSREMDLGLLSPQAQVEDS
Outline: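 Substrate peptide phosphorylation detected by time-resolved fluorescence after a 30 min kinase reaction at 25° C with 50 μM ATP (final). Beforehand, compound and FLT3 (WT, 1.2 μg) stood 15 min at 25° C in HEPES buffer pH 7.5 containing MgCl2, NaCl, BSA and DTT.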

MV4-11 cells = assay: Leukemia cell proliferation inhibition test (ATPlite), MV4-11; format: cell-based; conditions: read-out: MV4-11 cell proliferation inhibition effect
Outline: (§1)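 72 h proliferation, 37° C/5% CO2; 10,000 cells/well, RPMI/10% FBS; ATPlite luminescence (RLU); 0.1% DMSO taken as 0% inhibition; GI50 via sigmoid fit, n=2.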

Molm-13 cells = assay: Leukemia cell proliferation inhibition test (ATPlite), Molm-13; format: cell-based; conditions: read-out: MOLM13 cell proliferation inhibition effect
Outline: as §1

[2] = GST-fused human FLT3 (564 to 993 aa), ATP 50 μM
[3] = Homo sapiens, MV4-11, 72 h, MV4-11, 72 hours culture, ATPlite, GI50 per method
[4] = Homo sapiens, MOLM-13, 72 h, Molm-13, 72 hours culture, ATPlite, GI50 per method
[5] = Homo sapiens, MV4-11, MV4-11 cell
[6] = Homo sapiens, MOLM-13, MOLM13 cell

| SMILES | pIC50 [1, 2] | pIC50 (MV4-11 cells; [3]) | pIC50 (Molm-13 cells; [4]) | pIC50 ([1]; FLT3 (WT)) | pIC50 (MV4-11 cells; [5]) | pIC50 (Molm-13 cells; [6]) | pIC50 (MV4-11 cells; MV4-11, 72 hours culture, ATPlite, GI50 per method) | pIC50 (Molm-13 cells; Molm-13, 72 hours culture, ATPlite, GI50 per method) |
| --- | --- | --- | --- | --- | --- | --- | --- | --- |
| CCCNc1nc(Nc2ccc(C#N)cc2)ncc1C#C[C@H]1CC[C@H](NC(=O)[C@H](C)N(C)C(=O)/C=C/CN(C)C)C1 [Compound 13-12] | > 8.00 | > 8.00 | > 8.00 |  |  |  |  |  |
| CCCNc1nc(Nc2ccc(C(N)=O)cc2)ncc1C(=O)Nc1cccc(NC(=O)[C@H](C)N(C)C(=O)/C=C/CN(C(C)C)C(C)C)c1 [Compound 4-7] | > 8.00 | > 8.00 | > 8.00 |  |  |  |  |  |
| C=CC(=O)N(C)CC(=O)NCCCNC(=O)c1cnc(NCCc2ccncc2)nc1NCCC [Compound 2-23] | > 8.00 | 7.00 to 8.00 | > 8.00 |  |  |  |  |  |
| CCCNc1nc(Nc2cccc(C#N)c2)ncc1C#C[C@H]1C[C@@H](NC(=O)[C@H](C)N(C)C(=O)/C=C/CN(C)C)C1 [Compound 13-17] | > 8.00 | > 8.00 | > 8.00 |  |  |  |  |  |
| C[C@@H](C(=O)NCCCC#Cc1cnc(Nc2ccnc(F)c2)nc1N1CCCC1)N(C)C(=O)/C=C/CN(C)C [Compound 9-12, (S,E)-4-(Dimethylamino)-N-(1-((5-(2-((2-fluoropyridin-4-yl)amino)-4-(pyrrolidin-1-yl)pyrimidin-5-yl)-4-pentyn-1-yl)amino)-1-oxopropan-2-yl)-N-methyl-2-butenamide] | > 8.00 | > 8.00 | > 8.00 |  |  |  |  |  |
| CCCNc1nc(Nc2ccc(C#N)cc2)ncc1C#CCCCNC(=O)[C@H](CO)N(C)C(=O)/C=C/CN(C)C [Compound 7-62, (S,E)-N-(1-((5-(2-((4-Cyanophenyl)amino)-4-(propylamino)pyrimidin-5-yl)-4-pentyn-1-yl)amino)-3-hydroxy-1-oxopropan-2-yl)-4-(dimethylamino)-N-methyl-2-butenamide] | > 8.00 | > 8.00 | > 8.00 |  |  |  |  |  |
| Cc1ccc(Nc2nc(Nc3cccc(F)c3)ncc2C#CCCCNC(=O)[C@H](C)N(C)C(=O)/C=C/CN(C)C)cc1 [Compound 10-11] | > 8.00 | > 8.00 | 7.00 to 8.00 |  |  |  |  |  |
| CNc1nc(Nc2cccc(F)c2)ncc1C#C[C@H]1C[C@@H](NC(=O)[C@H](C)N(C)C(=O)/C=C/CN(C)C)C1 [Compound 13-13, (E)-4-(Dimethylamino)-N—((S)-1-(((1S,3R)-3-((2-((3-fluorophenyl)amino)-4-(methylamino)pyrimidin-5-yl)ethynyl)cyclobutyl)amino)-1-oxopropan-2-yl)-N-methyl-2-butenamide] | > 8.00 | > 8.00 | > 8.00 |  |  |  |  |  |
| CCCNc1nc(Nc2ccc(C(N)=O)cc2)ncc1C(=O)Nc1cccc(NC(=O)[C@H](C)N(C)C(=O)/C=C/CNC)c1 [Compound 4-2] | > 8.00 | > 8.00 | > 8.00 |  |  |  |  |  |
| CCCNc1nc(Nc2ccc(C(N)=O)cc2)ncc1C#Cc1cccc(NCCNC(=O)/C=C/CN(C)C)c1 [Compound 8-5] | > 8.00 | 7.00 to 8.00 | 7.00 to 8.00 |  |  |  |  |  |
| COCCCNc1nc(Nc2ccc3c(cnn3C)c2)ncc1C#CCCCNC(=O)[C@H](C)N(C)C(=O)/C=C/CN(C)C [Compound 10-55] | > 8.00 | > 8.00 | > 8.00 |  |  |  |  |  |
| C[C@@H](C(=O)NCCCC#Cc1cnc(Nc2cccc(F)c2)nc1OC1CCC1)N(C)C(=O)/C=C/CN(C)C [Compound 7-6] | > 8.00 | 7.00 to 8.00 | 7.00 to 8.00 |  |  |  |  |  |
| COCCCNc1nc(Nc2ccc3cn[nH]c3c2)ncc1C#CCCCNC(=O)[C@@H]1CCCN1C(=O)/C=C/CN(C)C [Compound 10-71] | > 8.00 | > 8.00 | > 8.00 |  |  |  |  |  |
| CNc1nc(Nc2ccc(F)cc2)ncc1C#CCCCNC(=O)[C@@H]1CC(F)(F)CN1C(=O)/C=C/CN(C)C [Compound 7-93] | > 8.00 | > 8.00 | > 8.00 |  |  |  |  |  |
| C[C@@H](C(=O)NCCCC#Cc1cnc(Nc2cccc(F)c2)nc1NCCCN(C)C)N(C)C(=O)/C=C/CN(C)C [Compound 10-4] | > 8.00 | > 8.00 | > 8.00 |  |  |  |  |  |
| C[C@@H](C(=O)NCCCC#Cc1cnc(Nc2ccc(F)nc2)nc1NCCCF)N(C)C(=O)/C=C/CN(C)C [Compound 10-34] | > 8.00 | > 8.00 | > 8.00 |  |  |  |  |  |
| CC(C)c1ccc(Nc2nc(Nc3cccc(F)c3)ncc2C#CCCCNC(=O)[C@H](C)N(C)C(=O)/C=C/CN(C)C)cc1 [Compound 10-12] | > 8.00 | > 8.00 | 7.00 to 8.00 |  |  |  |  |  |
| CCCNc1nc(Nc2ccc(C(N)=O)cc2)ncc1C#CCCCNC(=O)CNC(=O)/C=C/CN(C)C [Compound 7-2] | > 8.00 | > 8.00 | > 8.00 |  |  |  |  |  |
| C=CC(=O)NCC(=O)Nc1cccc(CNC(=O)c2cnc(NCCc3ccncc3)nc2NCCC)c1 [Compound 2-27] | 7.00 to 8.00 | 6.00 to 7.00 | 6.00 to 7.00 |  |  |  |  |  |
| C[C@@H](C(=O)NCCCC#Cc1cnc(Nc2cncc(F)c2)nc1NC1CC1)N(C)C(=O)/C=C/CN(C)C [Compound 9-22] | > 8.00 | > 8.00 | 7.00 to 8.00 |  |  |  |  |  |
| CCCNc1nc(Nc2cccc(F)c2)ncc1C#CCCCNC(=O)[C@@H]1CCCN1C(=O)/C=C/CN(C)C [Compound 8-15] | 7.00 to 8.00 |  |  |  |  |  | 6.00 to 7.00 | 6.00 to 7.00 |
| CCCNc1nc(Nc2cccc(F)c2)ncc1C#CCCCNC(=O)[C@@H]1C[C@H](OC)CN1C(=O)/C=C/CN(C)C [Compound 7-59] | > 8.00 | > 8.00 | > 8.00 |  |  |  |  |  |
| CCCNc1nc(Nc2cccc(F)c2)ncc1C#CC(C)(C)CCNC(=O)[C@H](C)N(C)C(=O)/C=C/CN(C)C [Compound 7-28] | > 8.00 | > 8.00 | > 8.00 |  |  |  |  |  |

The next lines start with the values.

| pIC50 [1, 2] | pIC50 (MV4-11 cells; [3]) | pIC50 (Molm-13 cells; [4]) | pIC50 ([1]; FLT3 (WT)) | pIC50 (MV4-11 cells; [5]) | pIC50 (Molm-13 cells; [6]) | pIC50 (MV4-11 cells; MV4-11, 72 hours culture, ATPlite, GI50 per method) | pIC50 (Molm-13 cells; Molm-13, 72 hours culture, ATPlite, GI50 per method) | SMILES |
| --- | --- | --- | --- | --- | --- | --- | --- | --- |
| > 8.00 | > 8.00 | > 8.00 |  |  |  |  |  | COCCCNc1nc(Nc2ccc(C#N)cc2)ncc1C#C[C@H]1C[C@@H](NC(=O)[C@H](C)N(C)C(=O)/C=C/CN(C)C)C1 [Compound 15-16, (E)-N—((S)-1-(((1S,3R)-3-((2-((4-Cyanophenyl)amino)-4-((3-methoxypropyl)amino)pyrimidin-5-yl)ethynyl)cyclobutyl)amino)-1-oxopropan-2-yl)-4-(dimethylamino)-N-methyl-2-butenamide] |
|  |  |  | > 8.00 | > 8.00 | > 8.00 |  |  | CNc1nc(Nc2ccc(C#N)cc2)ncc1C#CCCCNC(=O)[C@@H]1CCCN1C(=O)/C=C/CN(C)C [Compound 21-45] |
|  |  |  | > 8.00 | 7.00 to 8.00 | > 8.00 |  |  | CNc1ncc(C#CCCCNC(=O)[C@H](C)N(C)C(=O)/C=C/CN(C)C)c(Nc2ccc(OC)cc2)n1 [Compound 21-48] |
|  |  |  | > 8.00 | > 8.00 | > 8.00 |  |  | CCCNc1nc(Nc2ccc3c(OC)n[nH]c3c2)ncc1C#CCCCNC(=O)[C@@H]1CCCN1C(=O)/C=C/CN(C)C [Compound 22-68] |
|  |  |  | > 8.00 | 7.00 to 8.00 | 7.00 to 8.00 |  |  | CCCNc1nc(Nc2ccc(-n3cccn3)cc2)ncc1C#CCCCNC(=O)[C@H](C)N(C)C(=O)/C=C/CN(C)C [Compound 22-15] |
| > 8.00 | > 8.00 | > 8.00 |  |  |  |  |  | CCCNc1nc(Nc2ccc3c(cnn3C)c2)ncc1C#CCCCNC(=O)[C@H](C)N(C)C(=O)/C=C/CN(C)C [Compound 21-6] |
|  |  |  | > 8.00 | > 8.00 | > 8.00 |  |  | CCCNc1nc(Nc2cnc3[nH]nc(OC)c3c2)ncc1C#CCCCNC(=O)[C@@H]1CCCN1C(=O)/C=C/CN(C)C [Compound 22-57, (S,E)-1-(4-(Dimethylamino)-2-butenoyl)-N-(5-(2-((3-methoxy-1H-pyrazolo[3,4-b]pyridin-5-yl)amino)-4-(propylamino)pyrimidin-5-yl)-4-pentyn-1-yl)pyrrolidine-2-carboxamide] |
| > 8.00 | > 8.00 | > 8.00 |  |  |  |  |  | COCCCNc1nc(Nc2cccc(F)c2)ncc1C#C[C@H]1C[C@@H](NC(=O)[C@H](C)N(C)C(=O)/C=C/CN(C)C)C1 [Compound 15-15, (E)-4-(Dimethylamino)-N—((S)-1-(((1S,3R)-3-((2-((3-fluorophenyl)amino)-4-((3-methoxypropyl)amino)pyrimidin-5-yl)ethynyl)cyclobutyl)amino)-1-oxopropan-2-yl)-N-methyl-2-butenamide] |
|  |  |  | > 8.00 | > 8.00 | > 8.00 |  |  | CNc1ncc(C#C[C@@H]2CCC[C@H](NC(=O)[C@H](C)N(C)C(=O)/C=C/CN(C)C)C2)c(NCc2ccccc2)n1 [Compound 21-39] |
